Experimental data published in patent publication US20090068642A1, “Composition and pharmacology of novel alpha6-containing nicotinic acetylcholine receptors” (priority 2003, published 2009).
“And” between values parts separate entries of the source, which are not always exact repeats. Equal entries are not always repeated. “Also recorded” adds a separate entry of the source. Where two headings read alike, the source gives them in different places.

Key:
[1] = target: T1, α6β3β4α5 nAChR (Homo sapiens, UniProt P30926+Q15825); test: [3H]-epibatidine binding to SH-EP1 α6β3β4α5 cell membranes (saturation and competition)
T1 construct: expressed in transfected cells; host or cells: SH-EP1 human epithelial cells
Description: Preparation of Cell Membranes for Receptor Binding. […] Combined homogenate (18 mL) was centrifuged at 40,000×g for 20 min (4° C.). The pellet was resuspended in 12 mL of ice-cold PBS and centrifuged again. The final pellet was resuspended in 10 mL of PBS.
[^3H]-Epibatidine Binding. For the saturation binding assay, 0.1 to 2.0 nM [^3H]-EPI (final concentrations; PerkinElmer Life Sciences, 56.2 Ci/mmol) was used to probe α6-comprising binding sites on the cell membranes. Competition binding assay was performed using 0.5 nM [^3H]-EPI (final concentration).
Each well contained 50 μL of test compound at the desired concentration, 50 μL of 4×[^3H]-EPI stock solution and 100 μL of membrane suspension and was performed in triplicate, at minimum. Samples were incubated for 2 hr at room temperature with gentle agitation. Samples defining total binding included buffer instead of test compound.
For 48-well plates, binding was terminated by immediate filtration onto GF/B filters (presoaked in 0.3% PEI) using a 48-sample, semi-auto harvester (Brandel, Gaithersburg, Md.), followed by washing 3 times with ice-cold buffer. Filters were transferred into scintillation vials filled with 3 mL of cocktail. Radioactivity was measured after 8-12 hr using a liquid scintillation analyzer (model Tri-Carb 2200CA, PerkinElmer Life Sciences Inc., Boston, Mass.). Data were expressed as disintegrations per minute (DPMs) and were converted to an absolute amount (fmoles) of bound [^3H]-EPI per mg of protein, or as a percent of control [^3H]-EPI binding (total—nonspecific).
For 96-well plates, incubation was terminated by dilution with ice-cold PBS and immediate filtration onto GF/B filter plate (presoaked in 0.3% PEI) using a 96-sample, semi-auto harvester (Brandel, Gaithersburg, Md.). After washing 3 times with ˜350 μl of ice-cold buffer, the filter plate was dried for 60 min in an oven at 49° C., bottom-sealed and each well filled with 40 μl of cocktail. […] Data were expressed as counts per minute (CPMs) and were converted to percent of control [^3H]-EPI binding (total—nonspecific).
Pseudo Hill slope (nH) was determined by fitting data to a sigmoidal dose-response equation (variable slope): % binding=Bottom+(Top−Bottom)/[1+10^(logIC50-X)·n], where X is the logarithm of inhibitor concentration and n is the slope.
A Scatchard analysis was also done for illustrative purposes, but not to determine specific binding parameters.

[2] = target: T2, α4β2 nAChR (Rattus norvegicus, UniProt P09483+P12390); test: biochemical; type: binding
T2 construct: Rat Brain; from tissue

[3] = target: T3, α7 nAChR (Rattus norvegicus, UniProt Q05941); test: biochemical; conditions: read-out: Ki α7 [3H]-MLA Binding
T3 construct: Rat brain; from tissue

[4] = system: DA release; conditions: Bencherif, et al., 1998; cited from earlier work
[5] = target: α6α4β2β3 nAChR (Homo sapiens, UniProt P17787+P43681+Q15825, P452S); test: 86Rb+ efflux assay, SH-EP1 α6α4β2β3 cells compared with α4β2 cells; type: cell-based
Description: (§1) ^86Rb^+-flux Assay. […] After cells had adhered (generally overnight, but no sooner than 4 hr later), medium was removed and replaced with 250 μl per well of complete medium supplemented with ˜300,000 cpm of ^86Rb^+ (NEN; counted at 40% efficiency using Cerenkov counting and the Packard TriCarb 1900 Liquid Scintillation Analyzer).
(§2) Briefly, after aspiration of the bulk of ^86Rb^+ loading medium from each well of the “cell plate,” each well containing cells was rinsed three times with 2 ml of fresh ^86 Rb^+ efflux buffer (130 mM NaCl, 5.4 mM KCl, 2 mM CaCl2, 5 mM glucose, 50 mM HEPES, pH 7.4) to remove extracellular ^86Rb^+. Following removal of residual rinse buffer by aspiration, the flip-plate technique was used again to simultaneously introduce fresh efflux buffer containing drugs of choice at indicated final concentrations from a 24-well “efflux/drug plate” into the wells of the cell plate. […]
(§3) Intrinsic agonist activity of test drugs was ascertained in samples containing that drug only at different concentrations and was normalized, after subtraction of non-specific efflux, to specific efflux assessed using carbamylcholine and efflux-buffer-only controls. Antagonist activity was determined for test drugs at different concentrations in the presence of 1 mM carbamylcholine and was normalized, after subtraction of non-specific efflux, to specific efflux ascertained using carbamylcholine and efflux buffer-only controls. ^86Rb^+ in both cell plates and efflux/drug plates was periodically determined to ensure material balance (i.e., that the sum of ^86Rb^+ released into the efflux/drug plate and ^86Rb^+ remaining in the cell plate were the same for each well) and to determine efficiency of ^86Rb^+ loading (the percentage of applied ^86Rb^+ actually loaded into cells).
(§4) In some cases, biphasic dose-ion flux response curves were evident and were fit to a two-phase Hill equation from which EC50 and Hill coefficients for the rising, agonist phase, and IC50 and Hill coefficients for the falling, self-inhibitory phase could be determined (Prism).

[6] = target: T2, α4β2 nAChR; conditions: Table 1; from Briggs et al, 1997; read-out: Ki α4β2 [3H]-NIC Binding; cited from earlier work
[7] = target: T3, α7 nAChR; conditions: Table 1; from Briggs et al, 1997; read-out: Ki α7 [3H]-MLA Binding; cited from earlier work
[8] = target: α6α4β2β3 nAChR (Homo sapiens, UniProt P17787+P43681+Q15825); test: 86Rb+ efflux assay, SH-EP1 α6α4β2β3 cells compared with α4β2 cells; type: cell-based
Description: as §1, §2, §3, §4

[9] = target: T1, α6β3β4α5 nAChR; test: 86Rb+ efflux assay, SH-EP1 α6β3β4α5 cells; type: cell-based; conditions: SH-EP1 cells expressing α6β3β4α5-nAChR, FIG. 2
Description: ^86Rb^+-flux Assay. Cells were harvested at confluence from 100-mm plates by mild trypsinization (Irvine Scientific, Santa Ana, Calif.) before being resuspended in complete medium and evenly seeded at a density of one confluent 100-mm plate per 24-well plate (Falcon; ˜100-125 μg of total cell protein per well in a 500 μl volume). After cells had adhered (generally overnight, but no sooner than 4 hr later), medium was removed and replaced with 250 μl per well of complete medium supplemented with ˜300,000 cpm of ^86Rb^+ (NEN; counted at 40% efficiency using Cerenkov counting and the Packard TriCarb 1900 Liquid Scintillation Analyzer).
After at least 4 hr and typically overnight, ^86Rb^+ efflux was measured using the “flip-plate” technique (Lukas et al., 2002). […]
For each experiment, normalization and quality control measurements were made of total ^86Rb^+ efflux in samples containing a fully efficacious dose of 1 mM carbamylcholine and of non-specific ^86Rb^+ efflux measured using either samples containing 1 mM carbamylcholine plus 100 μM mecamylamine, which gave full block of agonist-induced or spontaneous, nAChR-mediated ion flux, or samples containing efflux buffer alone to assess any contributions due to spontaneous nAChR-mediated ion flux. […] Specific ^86Rb^+ efflux was determined in absolute terms and as a percentage of loaded ^86Rb^+. […]

[10] = read-out: Ki α6β3β4α5 [3H]-EPI Binding
[11] = read-out: Ki α4β2 [3H]-NIC Binding
[12] = SH-EP1 α6β3β4α5 membranes, read-out: Ki in competition with [3H]-EPI (rank order of potency)
[13] = SH-EP1 cells, Table 1, read-out: Ki α6β3β4α5 [3H]-EPI Binding
[14] = Ki in competition with [3H]-EPI (rank order of potency)

T3 sequence (Q05941 23-502): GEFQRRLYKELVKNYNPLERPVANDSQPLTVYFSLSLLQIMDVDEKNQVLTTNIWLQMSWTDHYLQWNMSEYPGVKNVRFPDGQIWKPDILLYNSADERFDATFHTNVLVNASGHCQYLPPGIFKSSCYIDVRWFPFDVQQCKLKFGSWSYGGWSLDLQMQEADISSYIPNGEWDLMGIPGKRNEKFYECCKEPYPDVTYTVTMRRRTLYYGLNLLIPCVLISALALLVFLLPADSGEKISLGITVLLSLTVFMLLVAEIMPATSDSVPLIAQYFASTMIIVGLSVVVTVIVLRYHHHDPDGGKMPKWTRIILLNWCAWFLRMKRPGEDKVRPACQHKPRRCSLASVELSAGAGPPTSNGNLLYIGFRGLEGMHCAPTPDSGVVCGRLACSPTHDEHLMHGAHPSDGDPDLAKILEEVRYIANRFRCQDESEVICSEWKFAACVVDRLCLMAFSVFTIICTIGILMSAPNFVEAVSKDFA
T2 sequence (P12390 25-500): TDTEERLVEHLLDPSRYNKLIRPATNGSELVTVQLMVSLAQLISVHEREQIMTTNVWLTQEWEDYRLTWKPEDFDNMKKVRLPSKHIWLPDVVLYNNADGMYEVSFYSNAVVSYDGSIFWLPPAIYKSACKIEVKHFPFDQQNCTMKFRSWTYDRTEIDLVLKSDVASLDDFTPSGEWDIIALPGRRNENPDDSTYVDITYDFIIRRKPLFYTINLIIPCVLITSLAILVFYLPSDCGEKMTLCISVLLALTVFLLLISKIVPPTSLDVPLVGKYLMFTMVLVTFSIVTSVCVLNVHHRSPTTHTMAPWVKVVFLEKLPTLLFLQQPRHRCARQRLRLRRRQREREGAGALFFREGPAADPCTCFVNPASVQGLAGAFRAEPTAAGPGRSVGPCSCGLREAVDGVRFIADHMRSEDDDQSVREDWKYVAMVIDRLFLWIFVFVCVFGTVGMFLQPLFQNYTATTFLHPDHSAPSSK
T2 sequence (P09483 31-630): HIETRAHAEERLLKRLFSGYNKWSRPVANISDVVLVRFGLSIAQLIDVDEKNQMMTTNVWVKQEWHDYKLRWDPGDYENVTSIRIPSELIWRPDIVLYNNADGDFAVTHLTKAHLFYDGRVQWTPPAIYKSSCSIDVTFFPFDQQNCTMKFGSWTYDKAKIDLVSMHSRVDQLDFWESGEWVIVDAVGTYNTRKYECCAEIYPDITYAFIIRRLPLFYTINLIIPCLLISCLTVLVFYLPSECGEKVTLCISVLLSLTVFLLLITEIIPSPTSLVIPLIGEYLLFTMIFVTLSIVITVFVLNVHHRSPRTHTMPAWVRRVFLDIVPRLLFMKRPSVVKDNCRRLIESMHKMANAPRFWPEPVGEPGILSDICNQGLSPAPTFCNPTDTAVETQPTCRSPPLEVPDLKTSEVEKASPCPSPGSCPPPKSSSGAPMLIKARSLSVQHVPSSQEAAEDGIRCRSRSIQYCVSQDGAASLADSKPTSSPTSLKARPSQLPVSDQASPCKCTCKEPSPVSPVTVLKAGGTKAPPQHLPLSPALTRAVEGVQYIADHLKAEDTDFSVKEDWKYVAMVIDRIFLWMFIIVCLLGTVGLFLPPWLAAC
T1 sequence (Q15825 26-494): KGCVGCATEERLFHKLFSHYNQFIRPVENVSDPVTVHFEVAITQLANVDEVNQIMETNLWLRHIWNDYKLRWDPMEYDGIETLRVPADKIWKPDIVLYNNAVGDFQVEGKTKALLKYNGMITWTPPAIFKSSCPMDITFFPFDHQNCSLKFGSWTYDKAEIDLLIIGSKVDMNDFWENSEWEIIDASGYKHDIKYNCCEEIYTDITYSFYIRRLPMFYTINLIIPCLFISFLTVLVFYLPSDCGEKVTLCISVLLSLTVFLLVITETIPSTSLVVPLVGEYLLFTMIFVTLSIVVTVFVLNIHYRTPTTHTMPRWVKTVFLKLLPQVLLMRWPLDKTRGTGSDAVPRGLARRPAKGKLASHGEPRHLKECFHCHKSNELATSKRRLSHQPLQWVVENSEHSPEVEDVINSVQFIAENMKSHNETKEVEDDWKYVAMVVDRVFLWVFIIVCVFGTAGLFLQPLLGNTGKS
T1 sequence (Q05901 25-458 partner limits assumed): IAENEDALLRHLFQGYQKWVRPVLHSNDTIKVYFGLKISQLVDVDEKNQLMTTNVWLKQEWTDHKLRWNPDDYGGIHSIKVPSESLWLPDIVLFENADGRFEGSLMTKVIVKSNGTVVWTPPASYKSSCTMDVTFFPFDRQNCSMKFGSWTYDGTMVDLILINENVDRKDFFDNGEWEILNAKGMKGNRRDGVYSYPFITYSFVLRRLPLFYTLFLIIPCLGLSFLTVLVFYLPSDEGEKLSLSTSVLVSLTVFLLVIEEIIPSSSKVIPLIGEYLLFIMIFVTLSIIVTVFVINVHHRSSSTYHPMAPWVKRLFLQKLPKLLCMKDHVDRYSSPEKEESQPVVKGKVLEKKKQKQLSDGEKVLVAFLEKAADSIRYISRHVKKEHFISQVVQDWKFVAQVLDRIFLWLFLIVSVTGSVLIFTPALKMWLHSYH
T1 sequence (P30926 22-498): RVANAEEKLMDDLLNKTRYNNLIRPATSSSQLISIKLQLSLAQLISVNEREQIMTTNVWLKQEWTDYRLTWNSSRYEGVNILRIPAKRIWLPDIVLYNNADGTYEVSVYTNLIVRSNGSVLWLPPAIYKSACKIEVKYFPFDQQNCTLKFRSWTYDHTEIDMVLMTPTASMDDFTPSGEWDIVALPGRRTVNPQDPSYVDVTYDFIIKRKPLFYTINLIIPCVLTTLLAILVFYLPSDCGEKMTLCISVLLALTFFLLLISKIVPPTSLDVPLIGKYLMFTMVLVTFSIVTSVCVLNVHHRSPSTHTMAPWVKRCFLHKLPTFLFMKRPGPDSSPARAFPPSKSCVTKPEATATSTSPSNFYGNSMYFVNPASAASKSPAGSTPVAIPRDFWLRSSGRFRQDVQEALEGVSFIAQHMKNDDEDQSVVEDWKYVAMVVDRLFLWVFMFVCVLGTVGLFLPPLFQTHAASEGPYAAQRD
T1 sequence (P30532 23-468 partner): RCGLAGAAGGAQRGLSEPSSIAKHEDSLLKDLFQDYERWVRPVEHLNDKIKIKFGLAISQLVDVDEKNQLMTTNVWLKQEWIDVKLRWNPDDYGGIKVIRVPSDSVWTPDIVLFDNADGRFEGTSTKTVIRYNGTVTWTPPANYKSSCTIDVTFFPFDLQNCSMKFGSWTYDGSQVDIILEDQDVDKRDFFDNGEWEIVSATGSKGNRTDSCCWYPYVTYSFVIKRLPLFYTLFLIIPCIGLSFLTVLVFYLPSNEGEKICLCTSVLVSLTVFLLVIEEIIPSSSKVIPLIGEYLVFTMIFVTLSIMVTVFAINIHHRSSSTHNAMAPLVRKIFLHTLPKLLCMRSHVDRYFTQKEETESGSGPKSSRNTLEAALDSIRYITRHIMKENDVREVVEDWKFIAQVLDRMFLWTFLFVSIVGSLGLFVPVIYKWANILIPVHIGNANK
α6α4β2β3 nAChR (Homo sapiens, UniProt P17787+P43681+Q15825, P452S), sequence (P43681 27-627 P452S): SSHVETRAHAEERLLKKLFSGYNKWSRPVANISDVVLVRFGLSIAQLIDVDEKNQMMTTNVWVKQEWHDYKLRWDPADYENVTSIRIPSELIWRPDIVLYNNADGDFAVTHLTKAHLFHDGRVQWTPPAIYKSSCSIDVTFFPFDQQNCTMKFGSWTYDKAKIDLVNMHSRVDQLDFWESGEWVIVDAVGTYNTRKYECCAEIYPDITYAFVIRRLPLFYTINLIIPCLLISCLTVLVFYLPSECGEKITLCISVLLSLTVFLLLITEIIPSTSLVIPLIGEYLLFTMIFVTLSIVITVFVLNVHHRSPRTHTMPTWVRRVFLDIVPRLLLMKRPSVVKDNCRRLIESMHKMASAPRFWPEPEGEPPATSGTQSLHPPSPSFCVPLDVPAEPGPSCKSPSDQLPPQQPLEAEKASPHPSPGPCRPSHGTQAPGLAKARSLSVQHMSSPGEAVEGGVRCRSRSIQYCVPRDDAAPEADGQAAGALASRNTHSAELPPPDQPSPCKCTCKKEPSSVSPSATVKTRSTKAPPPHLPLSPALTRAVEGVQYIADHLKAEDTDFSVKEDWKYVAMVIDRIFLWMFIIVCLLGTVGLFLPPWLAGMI
α6α4β2β3 nAChR (Homo sapiens, UniProt P17787+P43681+Q15825, P452S), sequence (Q15825 26-494): as the sequence (Q15825 26-494) above
α6α4β2β3 nAChR (Homo sapiens, UniProt P17787+P43681+Q15825, P452S), sequence (P17787 26-502): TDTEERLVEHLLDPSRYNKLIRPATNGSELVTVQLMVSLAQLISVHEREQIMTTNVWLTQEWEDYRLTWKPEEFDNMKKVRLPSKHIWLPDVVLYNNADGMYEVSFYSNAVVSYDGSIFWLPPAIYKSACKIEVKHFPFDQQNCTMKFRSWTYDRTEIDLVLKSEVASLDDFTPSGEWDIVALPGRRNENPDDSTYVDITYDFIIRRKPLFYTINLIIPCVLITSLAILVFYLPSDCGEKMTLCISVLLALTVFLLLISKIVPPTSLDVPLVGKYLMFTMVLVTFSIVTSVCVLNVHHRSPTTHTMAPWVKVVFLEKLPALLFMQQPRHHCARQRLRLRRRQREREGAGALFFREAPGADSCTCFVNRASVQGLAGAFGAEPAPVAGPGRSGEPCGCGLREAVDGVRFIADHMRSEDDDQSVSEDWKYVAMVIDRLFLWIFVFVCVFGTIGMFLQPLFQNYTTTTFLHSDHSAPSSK
α6α4β2β3 nAChR (Homo sapiens, UniProt P17787+P43681+Q15825, P452S), sequence (Q05901 22-458, further chain): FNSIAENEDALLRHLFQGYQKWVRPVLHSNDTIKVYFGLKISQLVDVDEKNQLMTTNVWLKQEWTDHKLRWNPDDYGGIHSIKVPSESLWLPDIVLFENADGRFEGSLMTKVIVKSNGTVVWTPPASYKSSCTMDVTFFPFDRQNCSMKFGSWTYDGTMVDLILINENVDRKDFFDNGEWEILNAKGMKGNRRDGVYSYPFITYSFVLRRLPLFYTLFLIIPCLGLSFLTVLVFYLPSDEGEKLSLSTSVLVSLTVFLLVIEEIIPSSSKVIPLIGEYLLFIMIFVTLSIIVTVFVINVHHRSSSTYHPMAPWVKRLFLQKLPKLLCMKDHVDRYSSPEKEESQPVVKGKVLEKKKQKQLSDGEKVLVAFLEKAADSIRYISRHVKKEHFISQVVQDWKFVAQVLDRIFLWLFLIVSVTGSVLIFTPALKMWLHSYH

Molecule: CO[C@H]1CC=C2CCN3CCC4=C(CC(=O)OC4)[C@]23C1 [DHβE, dihydro-β-erythoidine]
- Ki [1, 10]: > 10000 nM
- Ki [2, 11]: 26.4 nM
- Ki [3]: 5000 nM

Molecule: c1cncc(C2CC3CCN2CC3)c1 (racemic) [TC-2429, (+/−)-2-(−3-pyridinyl)-1-azabicyclo[2.2.2]octane]
- Ki [1, 12]: 2 nM
- DA release [4]: robust DA release

Molecule: O=c1cccc2n1C[C@@H]1CNC[C@H]2C1 [(-)-CYT, cytisine]
- Ki [1, 10]: 150 nM
- Ki [2, 11]: 1 nM
- Ki [3]: 1160 nM
- Agonist efficacy/potency at α6α4β2β3 nAChR relative to α4β2-nAChR [5]: higher efficacy and agonist potency; also recorded: much greater efficacy

Molecule: CCN1C[C@]2(COC(=O)c3ccccc3N3C(=O)C[C@H](C)C3=O)CC[C@H](OC)[C@@]34[C@@H]5C[C@H]6[C@H](OC)[C@@H]5[C@](O)(C[C@@H]6OC)[C@@](O)([C@@H](OC)[C@H]23)[C@@H]14 [MLA, methyllycaconitine]
- Ki [1, 13]: 160 nM
- Ki [1, 12]: 150 to 165 nM and 110 to 160 nM

Molecule: CNC1(C)C2CCC(C2)C1(C)C (stereo not drawn) [mecamylamine]
- Ki ([1]; read-out: Ki in competition with [3H]-EPI (rank order of potency)): > 10000 nM

Molecule: C#Cc1cncc([C@@H]2CCCN2C)c1 [SIB-1508Y, altinicline]
- Ki [1, 14]: 900 to 3500 nM and 500 to 2000 nM
- Ki [1, 13]: 950 nM
- Ki [2]: 200 nM

Molecule: Clc1ccc(C2CC3CCC2N3)cn1 (stereo not drawn) [EPI, epibatidine]
- Ki ([1]; Ki α6β3β4α5 [3H]-EPI Binding): 0.07 nM

Molecule: CN1CCCC1c1cccnc1 (single isomer, unassigned; (-)) [(-)-NIC, nicotine]
- Ki [1, 14]: 150 to 165 nM and 110 to 160 nM
- Ki ([1]; Ki α6β3β4α5 [3H]-EPI Binding): 160 nM

Molecule: COc1ccc(/C=C2\CCCN=C2c2cccnc2)c(OC)c1 [GTS-21, (2.4)-dimethoxybenzylidene anabaseine]
- Ki [1, 14]: 900 to 3500 nM and 500 to 2000 nM
- Ki [1, 13]: 1400 nM
- Ki [6]: 20 nM
- Ki [7]: 2000 nM

Molecule: CCN1C[C@]2(COC(=O)c3ccccc3N3C(=O)C[C@H](C)C3=O)CC[C@H](OC)[C@]34C5C[C@@H]6[C@@H](OC)C[C@@](O)(C5[C@H]6OC(C)=O)[C@](O)(C13)[C@@H](OC)C24 (stereo partly drawn) [NUD, nudikauline]
- Ki [1, 13]: 370 nM

Molecule: Cc1cc([C@@H]2CCCN2C)on1 [ABT-418, (S)-3-methyl-5-(1-methyl-2-pyrrolidinyl)isoxazole]
- Ki [1, 14]: 900 to 3500 nM and 500 to 2000 nM
- Ki [1, 13]: 850 nM
- Ki ([2]; Rat brain, Table 1, read-out: Ki α4β2 [3H]-NIC Binding): 39 nM

Molecule: CC(=O)O[C@H]1C[C@@H]2CC[C@@H]3[C@H](CC[C@@]4(C)[C@H]3C[C@H]([N+]3(C)CCCCC3)[C@@H]4OC(C)=O)[C@@]2(C)C[C@@H]1[N+]1(C)CCCCC1 [pancuronium]
- Sensitivity of α6α4β2β3-nAChR to functional blockade relative to α4β2-nAChR [8]: lower sensitivity

Molecule: α-bungarotoxin [α-Btx]
- Ki [1, 10]: > 10000 nM
- Ki [2, 11]: > 10000 nM

Molecule: C[N+](C)(C)CCOC(N)=O [CAR, carbachol]
- Ki [1, 13]: 3500 nM
- Ki [1, 12]: 900 to 3500 nM and 500 to 2000 nM
- 86Rb+ efflux response (agonist) [9]: activate ^86Rb^+ efflux responses

Molecule: c1cncc(OC[C@@H]2CCN2)c1 [A-85380, 3-[2(S)-azetidinylmethoxy]pyridine]
- Ki [1, 14]: 7 to 9 nM and 6 nM
- Ki [1, 13]: 9 nM
- Ki [2]: 3 nM
- Ki ([3]; Rat brain, Table 1): 1200 nM

Molecule: CNC(=O)OCC[N+](C)(C)C [MCC, methylcarbamylcholine]
- Ki [1, 13]: 970 nM

Molecule: CN1[C@@H](CC(=O)c2ccccc2)CCC[C@H]1C[C@H](O)c1ccccc1 [(-)-LOB, lobeline]
- Ki [1, 13]: 7 nM
- Ki [1, 12]: 7 to 9 nM and 6 nM
